The pEC50 is −log10 of the EC50, conventionally taken in molar units. The melting point is the temperature of the solid-liquid transition.

Structures are written as SMILES. pEC50: −log10 of the molar value. Read-outs that look alike come from different tables or passages of the source.

The target of data set [1] is T1, ligand-binding domain of human type PPARγ (Homo sapiens, UniProt P37231).
T1 sequence (P37231 238-503 limits assumed): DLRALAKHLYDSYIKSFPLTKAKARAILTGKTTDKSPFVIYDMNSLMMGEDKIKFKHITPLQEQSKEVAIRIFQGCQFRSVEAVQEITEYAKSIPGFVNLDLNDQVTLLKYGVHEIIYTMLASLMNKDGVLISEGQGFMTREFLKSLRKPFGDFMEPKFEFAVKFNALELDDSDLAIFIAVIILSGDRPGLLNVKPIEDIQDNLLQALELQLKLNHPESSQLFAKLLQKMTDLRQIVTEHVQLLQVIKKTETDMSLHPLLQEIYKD
In words: Test of transactivation on peroxisome proliferator-activated receptor (CHO cells, reporter plasmid), PPARγ.
Procedure: (§1) After 24 hours, CAT activity and β-galactosidase activity were measured.

The target in data set [2] is T2, ligand-binding domain of human type PPARα (Homo sapiens, UniProt Q07869).
T2 sequence (Q07869 239-466 limits assumed): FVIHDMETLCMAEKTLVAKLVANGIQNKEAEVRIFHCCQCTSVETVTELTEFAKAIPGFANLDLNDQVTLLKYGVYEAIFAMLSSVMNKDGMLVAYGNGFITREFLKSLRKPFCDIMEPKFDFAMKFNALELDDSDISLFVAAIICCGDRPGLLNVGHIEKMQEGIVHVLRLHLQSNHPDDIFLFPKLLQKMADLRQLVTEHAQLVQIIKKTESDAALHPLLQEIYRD
In words: Test of transactivation on peroxisome proliferator-activated receptor (CHO cells, reporter plasmid), PPARα.
Procedure: as §1

[3] abbreviates: read-out: Transactivation action PPARα EC50, CHO cells cotransfected with receptor and reporter plasmids, 24 hours, CAT activity, β-galactosidase internal standard.

As for `COc1ccc(CC2SC(=O)NC2=O)cc1NC(=O)Nc1ccc(C(F)(F)F)cc1` (stereo not shown) [Example 11, 5-[[4-Methoxy-3-[3-[4-(trifluoromethyl)phenyl]ureido]phenyl]methyl]thiazolidinex-2,4-dione], the melting point lay within 202 to 204 °C. The compound further showed a pEC50 in data set [1] of 6.37. In data set [2], this compound had a pEC50 of 6.26.

`CCCCC/C=C\C/C=C\C=C\[C@@H](O)C/C=C\CCCC(=O)O` [(8S)-HETE, reference compound]: the pEC50 in data set [2] (setting [3]) was 5.89.

Consider `COc1ccc(CC2SC(=O)NC2=O)cc1NC(=O)Cc1ccc(C(F)(F)F)cc1` (stereo not shown) [Example 15, N-[2-Methoxy-5-[(2,4-dioxothiazolidin-5-yl)methyl]phenyl]-2-[4-(trifluoromethyl)phenyl]acetamide], for which the melting point was in the range of 147 to 149 °C. For the same compound, the pEC50 in data set [1] is 5.96. This compound had a pEC50 in data set [2] of 6.07.

Regarding `COc1ccc(CC2SC(=O)NC2=O)cc1CC(=O)Nc1ccc(C(F)(F)F)cc1` (stereo not shown) [Example 6, N-[4-(Trifloromethyl)phenyl]-2-[5-[(2,4-dioxothiazolidin-5-yl)methyl]2-methoxyphenyl]acetamide], the pEC50 is 5.48 in data set [1] (read-out: Transactivation action PPARγ EC50, CHO cells cotransfected with receptor and reporter plasmids, 24 hours, CAT activity, β-galactosidase internal standard); 6.22 in data set [2] (setting [3]).

For `COc1ccc(CC2SC(=O)NC2=O)cc1C(=O)CCc1ccc(C(F)(F)F)cc1` (stereo not shown) [Example 22, 5-[[3-[3-[4-(Trifluoromethyl)phenyl]propanoyl]-4-methoxynhenyl]methyl]thiazolidine-2,4-dione], the melting point is 103 to 104.5 °C. The pEC50 in data set [1] is 6.40. In data set [2], the pEC50 is 6.10.

For the compound `COc1ccc(CC2SC(=O)NC2=O)cc1CC(=O)Nc1ccc(Oc2ccccc2)cc1` (stereo not shown) [Example 23, N-[4-(Phenoxy)phenyl]-2-[5-[(2,4-dioxothiazolidin-5-yl)methyl]-2-methoxyphenyl]acetamide], the melting point was 82 to 84 °C.

The values are drawn from patent US6730687B1, “Substituted benzylthiazolidine-2, 4-dione derivatives” (Kyorin Pharmaceutical Co., Ltd., priority 1999, dated 2004).
